Results reported in patent publication US20210321613A1, “Process for Preparation of Thiocyclam Base and Salt” (ARYSTA L[…], priority 2018, published 2021).

How the values were obtained:
Assay type in all cases: in vivo
[1] = test system: Soybean looper, Chrysodeixis includens; experiment: Soybean looper bioassay by diet surface incorporation, mortality; conditions: for LC50: Chrysodeixis includens, 72 h, 3rd larval stage, diet surface incorporation, mortality 3 days after treatment (D + 3), read-out: LC50 (μg of a.i/ml of diet)
Text: Soybean looper, Chrysodeixis includens—3rd larval stage
Bioassay by diet surface incorporation Mortality assessment 3 days after treatment a.i. refers to active ingredient
(§1) LC stands for “Lethal Concentration”. LC values refer to the concentration of a chemical required to kill a certain proportion of a population of pests. The concentration of the chemical that kills 50 percent of the pests during the observation period is the LC50 value and a concentration that kills 90 percent of a population is LC90, LD stands for “Lethal Dose”. LD50 is the amount of an ingested substance that kills 50 percent of a test sample and […] is the lethal dose that kills 90 percent of the test sample. […] In example 1, approximately 4 times less thiocyclam hydrochloride was ingested by the moths at LC50 compared to cartap and approximately 9 times less at LC90 compared to cartap. […] In example 7, all three insecticides performed similarly to eliminate the aphids on radish plants. […] The use of the thiocyclam hydrochloride composition embodiments is in no way restricted to these genera, but also extends in the same manner to other insects and other crops.

Aphids, Myzus persicae = experiment: Aphid larvae on radish, boom sprayer application (IRAC n°019 adapted), mortality; conditions: for LD50 (g a.iJha) / LD90 (g al./ha): mortality 3 days after application (D + 3); for LD50 (g al./ha) / LD90 (g alJha): mortality 4 days after application (D + 4)
Text: Aphids, Myzus persicae—larvae
Study based on IRAC n°019 methods, application method adapted Plant: radish Application on petri dish with larvae with a boom sprayer apparatus Assessment of mortality 3 and 4 days after application a.i. refers to active ingredient
as §1

[2] = test system: White flies, Trialeurodes vaporarium; experiment: White fly larvae on bean, boom sprayer application (IRAC n°015 adapted), mortality; conditions: for LD50 (g al/ha) / LD90 (g a.i/ha): mortality 9 days after application (D + 9); for LD50 (g a.i./ha) / LD90 (g a.i./ha): mortality 14 days after application (D + 14)
Text: White flies, Trialeurodes vaporarium—larvae
Study based on IRAC n°015 methods, stage and application method adapted Plant: bean Application: On the petri dish with larvae with a boom sprayer apparatus Assessment of mortality at 7, 9 and 14 days after application a.i. refers to active ingredient
as §1

[3] = test system: Coding moth, Cydia pomonella
Text: Coding moth, Cydia pomonella—onate
larvae Bioassay by diet incorporation; Mortality assessment 2 days after treatment a.i. refers to active ingredient
as §1

SMILES	LC50 [1] [µg/mL]	LD50 (g a.iJha) (Aphids, Myzus persicae)	LD90 (g al./ha) (Aphids, Myzus persicae)	LD50 (g al./ha) (Aphids, Myzus persicae)	LD90 (g alJha) (Aphids, Myzus persicae)	LD50 (g al/ha) ([2]; larvae, bean)	LD90 (g a.i/ha) ([2]; larvae, bean)	LD50 (g a.i./ha) ([2]; larvae, bean)	LD90 (g a.i./ha) ([2]; larvae, bean)	times less ingested by the moths at LC50 compared to cartap ([3]; compared to cartap, LC50)	times less at LC90 compared to cartap ([3]; compared to cartap, LC90)	LC50 and LC90 compared to thiocyclam oxalate ([3]; compared to thiocyclam oxalate)	LC50 achieved with times less than cartap ([1]; compared to cartap, LC50)	LC90 compared to the concentration of cartap ([1]; compared to cartap, LC90)	LC50 achieved with times less than thiocyclam oxalate ([1]; compared to thiocyclam oxalate, LC50)	LC90 compared to thiocyclam oxalate ([1]; compared to thiocyclam oxalate, LC90)	LD90 compared to cartap ([2]; days 7 and 9)	LD90 (g ai./ha) ([2]; larvae, bean, mortality 7 days after application (D + 7))
CN(C)C(CSC(N)=O)CSC(N)=O [Cartap, reference compound]	53.1	<18.18	36.70	<18.18	16	15.6	4,566.3 g a.i/ha	10.4	910.4 g a.i./ha									
CN(C)C1CSSSC1.Cl [Thiocyclam HCl, N,N-dimethyl-1,2,3-trithian-5-ylamine hydrochloride]	8.99	12.04	30.51	7.66	27.07	2.23	4,905 g a.i/ha	0.82	7,910 g a.i./ha	approximately 4 times	approximately 9 times	significantly lower concentrations	approximately 6 times	more than three times lower	approximately 20 times	orders of magnitude smaller	lower application concentration compared to cartap	1,899 g ai./ha
